Experimental data taken from publication PMC12406255, “Engineering Peptide Modulators for T‑Cell Migration by Structural Scaffold Matching” (Journal of Medicinal Chemistry, 2025).
Where two headings read alike, the source gives them in different places. Positions of bridges follow the written chain, without caps; N, C: chain ends. Residues, ends and D or L forms follow the SMILES beside them.

Columns and labels:
Serum stability assay = assay type: in vitro ADME; conditions: human serum of healthy donors, lipids removed by centrifugation, 37 °C, peptide 30-60 μM from 10-fold stock in PBS, followed over 48 h, urea/TFA quench, analytical RP-HPLC peak area vs time 0, one-phase decay fit; mean ± SD, n = 2 (pepitem n = 5); read-out: Serum t 1/2 (converted)
Procedure: Stability of peptides in human serum was measured similarly to that previously described. In short, fresh blood from healthy donors was collected in serum collection tubes (Clot Activator Tube, Becton Dickinson, Plymouth, United Kingdom, […]) and incubated at 4 °C for 2 h to allow blood clotting. The serum was separated by centrifugation at 1000 × g for 10 min. To remove lipids from the serum, an additional centrifugation step was performed at 15,000 × g for 15 min at 4 °C, after which the serum was used for the stability assays. For this, the serum was prewarmed for 10 min at 37 °C before the addition of the test compounds. Peptides were prepared at a 10-fold concentration in PBS and diluted to a final concentration between 60 and 30 μM with the serum. The serum-peptide reaction mix was incubated at 37 °C, and 40 μL aliquots were taken at the indicated time points. To stop the reaction, samples were mixed with 40 μL of 6 M urea for 10 min on ice, followed by precipitation of serum proteins by the addition of 40 μL of 20% TFA and incubation for at least 10 min on ice. The precipitate was pelleted at 15,000 × g for 15 min, and 90 μL of the supernatant was freeze-dried. The dry material was resuspended in HPLC solvent A (0.1% TFA in ddH2O). Peptide quantification was performed using analytical HPLC. The remaining peptide relative to the starting point (time point 0) was calculated by peak integration to determine the area under the peak at the designated time points and further calculated in comparison to time point 0 min, which was set as 100%. To calculate the half-life of the peptides in human serum, data points were fitted with a one-phase decay equation.

[1] = tested on: memory CD4+ cells (CD3+, CD4+, CD45RO+); assay type: cell-based, human; conditions: normalized to untreated control, mean ± SEM of 4-6 experiments
Procedure: (§1) Transwell migration assays were performed similarly as published previously. HMEC-1 cells were seeded at a density of 75,000 cells per well in transwell inserts. Three days after cell seeding, the medium was changed, and the cells were stimulated with 100 ng/mL TNF-α and 20 ng/mL IFN-γ for 16–18 h. On the day of the assay, cells were washed with migration medium (serum-free RPMI medium supplemented with 0.1% BSA) to remove residual cytokines and starved for at least 1 h at 37 °C in migration medium. PBMC were starved for at least 1.5 h in migration medium before addition to the EC. For S1P and lifitegrast-treated samples, the PBMC were preincubated for at least 1.5 h at 37 °C with the ligands before addition to the EC. Pepitem and other peptides were added onto the EC monolayer and preincubated for 15–30 min at 37 °C before the addition of the PBMC. 200,000 PBMC per well were added directly on top of the EC prestimulated with pepitem or other peptides to reach a final volume of 150 μL in the donor compartments. The receiver compartments of the wells were filled with 600 μL RPMI with 20% FBS. After 4 h of migration at 37 °C, the receiver compartment with the migrated cells was collected. The migrated cells were stained with the indicated antibodies: CD3-APC (clone: OKT3, lot: B400127), CD4-PE (clone: OKT4. lot: B379180), CD8-FITC (clone: HIT8a, lot: B370193) from Biolegend and CD3-VioGreen (clone: REA613, lot: 5240502518), CD45RO-FITC (clone: REA611, lot: 5240502519), CD4-PerCP-Vio700 (clone: REA623, lot: 5240506702), CXCR3 PE-Vio615 (clone: REA232, lot: 5240506722), CD196-APC (clone: REA190, lot: 5240506717), CD8-APC-Vio770 (clone: REA734, lot: 5240303993) and CD45RO-PEVio616 (clone: REA611, lot: 5231102514) from Miltenyi Biotec (Bergisch Gladbach, Germany) and counted using precision counting beads (Biolegend) on a CytoflexS flow cytometer (BeckmanCoulter). Data was analyzed using CytExpert (Version 2.4). T cells were gated as CD3^+ cells, T cell subsets were gated as CD4^+ (CD3^+, CD4^+), CD8^+ (CD3^+, CD8^+), memory CD4^+ (CD3^+, CD4^+, CD45RO^+), memory CD8^+ (CD3^+, CD8^+, CD45RO^+) and Th1 cells (CD3^+, CD4^+, CXCR3^+, CCR6^–).
(§2) Data were analyzed using GraphPad Prism software. EC50 values were calculated by three-parameter nonlinear regression analysis. For this, the data points were normalized to the number of migrated cells in untreated (buffer) control samples (100%), and the regression was fitted with the top constraint to 100 and the slope fixed to 1. Statistical significance is indicated in graphs as n.s. not significant, * p < 0.05; ** p < 0.01; *** p < 0.001. The statistical tests used are indicated in the respective figure captions.

[2] = tested on: memory CD8+ cells (CD3+, CD8+, CD45RO+); assay type: cell-based, human; conditions: normalized to untreated control, mean ± SEM of 4-6 experiments
Procedure: as §1, §2

[3] = tested on: CD8+ lymphocytes (CD3+, CD8+); assay type: cell-based, human; conditions: normalized to untreated control, mean ± SEM of 4-6 experiments
Procedure: as §1, §2

[4] = tested on: CD4+ lymphocytes (CD3+, CD4+); assay type: cell-based, human; conditions: normalized to untreated control, mean ± SEM of 4-6 experiments
Procedure: as §1, §2

CD3+ lymphocytes = test: cells; assay type: cell-based, human; conditions: normalized to untreated control, mean ± SEM of 4-6 experiments
Procedure: 1 Transwell-based migration assay to study lymphocyte transendothelial migration. (A) The general principle of the transwell migration assay is depicted. Endothelial cells (EC) are seeded in transwell inserts and are incubated for 2 days to form an EC monolayer. On the day before the assay, the ECs are cytokine-stimulated to induce the expression of adhesion molecules. In the migration assay, human peripheral blood mononuclear cells (PBMC) are placed into the donor compartment of the transwell setup. After 4 h of incubation time, the migrated cells are harvested from the receiver compartment, stained with fluorescent antibodies and counted using flow cytometry. (B) PBMCs were preincubated with S1P for 1.5 h and then transferred into the donor compartment on top of the EC monolayer. […] Data are shown as mean ± SD of 3 to 5 independent experiments.
as §1, §2

SMILES: CC(=O)N[C@@H](CCC(=O)O)C(=O)N[C@@H](CCC(N)=O)C(=O)N[C@H]1CSSC[C@@H](C(=O)N[C@@H](CCC(=O)O)C(=O)N[C@@H](CCCCN)C(N)=O)NC(=O)[C@H](CC(N)=O)NC(=O)[C@H](CC(=O)O)NC(=O)[C@H](CC(C)C)NC(=O)[C@@H]2CSSC[C@H](NC(=O)[C@H]([C@@H](C)O)NC(=O)[C@H](C(C)C)NC(=O)[C@H](CO)NC1=O)C(=O)N[C@@H](CCC(=O)O)C(=O)N[C@@H](CCC(N)=O)C(=O)NCC(=O)N[C@@H](C)C(=O)N[C@@H](CCC(=O)O)C(=O)N[C@@H](CC(C)C)C(=O)N1CCC[C@H]1C(=O)N[C@@H](CO)C(=O)N[C@@H](CC(N)=O)C(=O)N[C@@H](CCC(=O)O)C(=O)N[C@@H](CCC(=O)O)C(=O)N[C@@H](CCCNC(=N)N)C(=O)N2 [VhTI-pep 6] (Ac-EQCSVTCEQGAELPSNEERCLDNCEK-NH2; disulfide 3-24, 7-20)
- half-life (Serum stability assay): 25.8 ± 9.7 h
- % Inhibition of cell migration compared to control, Memory CD4+ ([1]; 0.1 μM): 24.6 ± 11.6%
- % Inhibition of cell migration compared to control, Memory CD4+ ([1]; 1 μM): 14.7 ± 7.6%
- % Inhibition of cell migration compared to control, Memory CD8+ ([2]; 0.1 μM): 23.2 ± 4.3%
- % Inhibition of cell migration compared to control, Memory CD8+ ([2]; 1 μM): 0.6 ± 6.1%
- % Inhibition of cell migration compared to control, CD8+ ([3]; 0.1 μM): 28.0 ± 8.2%
- % Inhibition of cell migration compared to control, CD8+ ([3]; 1 μM): 1.6 ± 7.8%
- % Inhibition of cell migration compared to control, CD4+ ([4]; 0.1 μM): 19.5 ± 9.9%
- % Inhibition of cell migration compared to control, CD4+ ([4]; 1 μM): 14.6 ± 8.7%
- % Inhibition of cell migration compared to control, CD3+ (CD3+ lymphocytes; 0.1 μM): 27.0 ± 9.7%
- % Inhibition of cell migration compared to control, CD3+ (CD3+ lymphocytes; 1 μM): 14.9 ± 11.6%
